Read-outs that look alike come from different tables or passages of the source.

This note sets out measurements from patent US20250214978A1, “AT2R AGONIST” (WUHAN HUMANWELL INNOVATIVE DRUG RESEARCH AND DEVELOPMENT …, priority 2022, published 2025).

What all share (assay type): in vitro ADME
One data set addresses CYP2C8 (Homo sapiens (Human), UniProt P10632). Nature of the data set: CYP inhibition assay in mixed human liver microsomes. The settings on record: mixed (pooled) human liver microsomes, read-out: Inhibition rate % CYP2C8. The protocol:
The inhibitory effects of the compounds on seven enzymes, i.e., CYP1A2, CYP2C9, CYP2C19, CYP2D6, CYP3A4 (midazolam), CYP2B6, and CYP2C8, were evaluated at a concentration of 10 μM. Mixed human liver microsomes, which were previously stored in a −80° C. refrigerator before use, were taken out and thawed in a water bath at 37° C. before use, and placed on ice for further operation. 100 μL of microsome working solution was taken, and added with 2 μL of test product or positive inhibitor working solution. 2 μL of solvent was added to the solvent control. The mixture was pre-incubated in a water bath at 37° C. for 10 minutes. After preincubation, 98 μL of NADPH regeneration solution was added to all samples to initiate the reaction. Then, the samples were put back into the water bath and incubated for a period of time. The reaction was quenched with 200 μL of stop solution. The plate was centrifuged at 3,220 g for 10 minutes, 100 μL of supernatant was transferred, and 100 μL of water was added and mixed well to the assay plate for LC/MS/MS analysis.

A short description of data set [1]: Free plasma protein binding (PPB) assay, equilibrium dialysis. To be noted: dialysis 6 hours at 37° C. The method, then: The dried dialysis membrane was soaked in ultrapure water for 1 hour, then soaked in 20% ethanol for 20 minutes, and then rinsed with ultrapure water for 2 to 3 times. Finally, the dried dialysis membrane was soaked in ultrapure water for 20 minutes for later use. The frozen plasma was thawed in a water bath at 37° C. for about 20 minutes. pH value of the plasma was measured after thawing was complete, and was adjusted to 7.4 with 1% phosphoric acid solution or 0.1M sodium hydroxide solution. […] The pretreated dialysis membrane was assembled into the dialysis plate according to product instructions, and 100 μL of receiving solution (100 mM phosphate buffer solution plus 0.002% Tween 80) was added to one side of the permeable membrane in each dialysis well. 20 μL of each of the final solution of the test compound and the final solution of the control compound were taken in a 96-well sample plate, two duplicate samples were made, and T0 sample was obtained, which was stored in a −20° C. refrigerator. Another 100 μL of each of the above-mentioned final solutions were taken to the other side of the membrane in the dialysis device, two duplicate samples were made, and incubated at 37° C. with constant shaking for 6 hours. After 6 hours of incubation, 20 μL of each of the dialyzed receiving solution and the administered plasma were taken, two duplicate samples were made, and sample A and sample B were obtained. Corresponding blank plasma or receiving solution of corresponding volume were added to sample B and sample A, respectively, allowing the volume ratio of plasma to buffer in each sample well to be 1:1. 300 μL of sample-containing internal standard acetonitrile solution was added to all the sample wells. The mixture was mixed well, and centrifuged at 5,500×g for 10 minutes. 150 μL of corresponding ultrapure water was added to the corresponding sample wells of the 96-well sample plate. 150 μL of the supernatant was taken into the sample wells, and mixed well. Then, LC/MS/MS analysis was performed. The calculation formula of fu is: […]
where: CR: peak area ratio measured in the receiving chamber well CD: peak area ratio measured in the supply chamber well.

The nature of data set [2]: Liver microsome stability assay. The settings on record: Rat liver microsomes; read-out: T1/2 (min) Rat. A general note: Microsomes from liver hold many membrane-bound enzymes, among them those of drug oxidation.
Data set [3] in a line: Liver microsome stability assay. The settings on record: Mouse liver microsomes; read-out: T1/2 (min) Mouse.
Data set [4] in a line: Liver microsome stability assay. The settings on record: dog; Canine liver microsomes; read-out: T1/2 (min) Canine.
In the next data set the test system is Caco-2 cells. Briefly: Bidirectional permeability study in CACO-2 cells. To be noted: Caco-2 monolayer, 2.00 μM, 2 hours, pH 7.40. The protocol: Caco-2 cells were inoculated onto polyethylene membrane (PET) in 96-well inserted plates at a rate of 1×10^5 cells/cm^2, and the medium was changed every 4 to 5 days until day 21 to 28, to form a fused cell monolayer. The transport buffer in the assay was HBSS and 10.0 mM HEPES, with a pH of 7.40±0.05. The test compounds were subjected to a bidirectional test at 2.00 μM in the presence and absence of GF120918 (10.0 μM). Digoxin was subjected to a bidirectional test at 10.0 μM in the presence and absence of GF120918 (10.0 μM), while Nadolol and Metoprolol were subjected to a test from direction A to direction B at 2.00 μM in the absence of GF120918 (10.0 μM). The above tests were performed in duplicate. The final concentration of DMSO was adjusted to be lower than 1%. The plate was incubated in a CO2 incubator at 37° C.±1° C. for 2 hours, and 5% CO2 was added under saturated humidity without shaking. All the samples, after being mixed with acetonitrile containing internal standard, were centrifuged at 3,200 g for 10 minutes. […] The concentrations of the test compounds and control compounds in the starting solution, the donor solution, and the acceptor solution were quantified by LC-MS/MS based on a peak area ratio of the analyte to the internal standard.
After the transport assay, the integrity of the Caco-2 cell monolayer was determined using Lucifer Yellow Exclusion Assay.
A general note: Caco-2 monolayers are a common model of the intestinal barrier.

Chain of CYP2C8 (P10632 whole entry): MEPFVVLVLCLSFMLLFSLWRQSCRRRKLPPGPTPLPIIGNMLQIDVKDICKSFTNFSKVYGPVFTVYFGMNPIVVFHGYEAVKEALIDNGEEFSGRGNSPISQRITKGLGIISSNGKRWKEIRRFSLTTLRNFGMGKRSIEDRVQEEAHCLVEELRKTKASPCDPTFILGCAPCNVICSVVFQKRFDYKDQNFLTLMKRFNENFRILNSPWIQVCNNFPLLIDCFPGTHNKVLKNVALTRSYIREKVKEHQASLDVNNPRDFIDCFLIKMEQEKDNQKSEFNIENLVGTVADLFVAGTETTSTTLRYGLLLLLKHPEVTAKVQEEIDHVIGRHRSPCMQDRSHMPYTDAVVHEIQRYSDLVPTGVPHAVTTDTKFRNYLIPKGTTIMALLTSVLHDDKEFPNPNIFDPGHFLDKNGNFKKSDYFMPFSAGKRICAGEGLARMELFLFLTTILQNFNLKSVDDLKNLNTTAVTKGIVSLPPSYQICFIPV

For `CCCCOC(=O)NS(=O)(=O)c1sc(CC(C)C)cc1-c1ccc(Cn2ccnc2)cc1` [Control Compound I, reference compound], the inhibition at 10 µM on CYP2C8 came to 97.5%. The fraction unbound at 6 h, 1 μM in data set [1] (dog, pH 7.4, Canine plasma, read-out: fu % Canine) amounted to 0.0023; in data set [1] (pH 7.4, Human plasma, read-out: fu % Human) it was 0.0006; in data set [1] (pH 7.4, Mouse plasma, read-out: fu % Mouse), 0.0009; in data set [1] (pH 7.4, Rat plasma, read-out: fu % Rat) it was 0.0005. Further, the half-life at 1 μM in data set [2] was found to be 22.6 min; in data set [3] it was 49.1 min; in data set [4], 224 min. For the same molecule, the “Papp mean value (10^−6 cm/s) A to B” value in the data set with Caco-2 cells is recorded as 0.381 10^−6 cm/s.

Broadly, the inhibition is the change of the read-out against control, counted positive when it falls.
